Data set [1] can be described thus: Apparent intrinsic clearance in human liver microsomes at 1 uM. In kind it is ADME, microsome. The following applies: read-out: CLH(app). (Liver microsomes are vesicles of endoplasmic reticulum, rich in cytochrome P450 enzymes.)
Data set [2] can be described thus: Dissociation constant, pKa of the compound by UV spectrophotometric method. In kind it is physicochemical.
Data set [3] is described as follows: Apparent intrinsic clearance in rat liver microsomes at 1 uM. In kind it is ADME, microsome. The following applies: read-out: CLH(app).
Data set [4] in a line: Apparent permeability in pig LLC-PK1 cells. It is filed as ADME, cell-based, Sus scrofa.
Data set [5] is described as follows: Plasma concentration in Crl:CD(SD) rat at 10 mg/kg, po administered as single dose via gavage measured after 4 hrs. It is filed as ADME, organism-based.
The nature of data set [6]: Drug level in Crl:CD(SD) rat CSF at 10 mg/kg, po administered as single dose via gavage measured after 4 hrs. In kind it is ADME, organism-based, Cerebrospinal fluid. The following applies: read-out: Drug uptake.
Data set [7] in a line: Drug level in Crl:CD(SD) rat brain at 10 mg/kg, po administered as single dose via gavage measured after 4 hrs. In kind it is ADME, organism-based. The following applies: read-out: Drug uptake.
Data set [8] can be described thus: Unbound plasma concentration in Crl:CD(SD) rat at 10 mg/kg, po administered as single dose via gavage measured after 4 hrs. It is filed as ADME, organism-based. The following applies: in vivo.

As for `COc1cnc(C(=O)Nc2ccc(F)c([C@]3(C)CCOC(N)=N3)c2)cn1`, the microsomal CLint at 1 µM in data set [1] is less than 14 µL/min/mg; in data set [3] it was 52 µL/min/mg. Besides, the pKa (as a rule, the pH at which an ionisable group is half protonated) in data set [2] amounted to 9.8. The Papp (commonly a coefficient for how fast a substance crosses the barrier) in data set [4] turned out to be 3.4 ×10⁻⁶ cm/s.

Turning to `COc1cnc(C(=O)Nc2ccc(F)c([C@@]3(C)N=C(N)O[C@H]4C[C@H]43)c2)cn1`, the microsomal CLint at 1 µM in data set [1] was 162 µL/min/mg. The pKa in data set [2] amounted to 8.8. Further, the Papp in data set [4] stood at 2.5 ×10⁻⁶ cm/s.

As for `COc1cnc(C(=O)Nc2ccc(F)c([C@@]3(C)N=C(N)O[C@@H]4C[C@@H]43)c2)cn1`, the microsomal CLint at 1 µM came out at 105 µL/min/mg in data set [1] and 30 µL/min/mg in data set [3]. The concentration at 4 h in data set [5] stood at 2300 nM; in data set [6], 210 nM; in data set [7], 1100 nM. In data set [2], this compound came in with a pKa of 9.3. Also, the “Cp(f)” value in data set [8] was determined as 920 nM. The Papp in data set [4] was determined as 1.8 ×10⁻⁶ cm/s.

These data come from ChEMBL document CHEMBL4184270, “Diastereoselective synthesis of fused cyclopropyl-3-amino-2,4-oxazine β-amyloid cleaving enzyme (BACE) inhibitors and their biological evaluation” (Bioorg Med Chem Lett, 2018).
